The source of these data is PMC8534003, “The Chemokine-Based Peptide, CXCL9(74-103), Inhibits Angiogenesis by Blocking Heparan Sulfate Proteoglycan-Mediated Signaling of Multiple Endothelial Growth Factors” (Cancers, 2021).

Where no end group is shown, it is not given here.

The term koff denotes the rate constant with which the complex falls apart. Lower therefore signals slow dissociation. As usually defined, the kon is a measure of how fast the partners come together. Lower therefore signals slow association.

The subject of one data set is HMVECs. As to the kind of experiment: In vitro toxicity assay (LIVE/DEAD viability/cytotoxicity). In kind it is cell-based, human. Conditions: 0.3 or 3 µM, 24 h, calcein-AM/EthD-1, n = 4. As for the experimental part:
HMVECs were seeded in MCDB131 medium supplemented with 3% (v/v) FCS at 8 × 10^3 cells/well in a black, clear bottom 96-well plate coated with 0.1% (v/v) gelatin in PBS. The next day, cells were washed and incubated with control medium (vide supra) alone or in the presence of 0.3 or 3 µM of CXCL9(74-103) or CXCL9(86-103) for 24 h. The negative control cells were treated with 2% (v/v) Triton™ X-100 to induce cell death […] after the start of the experiment, i.e., 1 h prior to the addition of the LIVE/DEAD stain. The toxicity of the peptides was assessed using the LIVE/DEAD viability/cytotoxicity kit (Invitrogen, Carlsbad, CA, USA), according to the manufacturer’s instructions. At 24 h, calcein-acetoxymethyl ester (AM) and ethidium homodimer-1 (EthD-1) in 0.4% (v/v) FCS in DMEM FluoroBrite (Gibco) were added to all wells and the fluorescence was measured in the IncuCyte S3 live cell imaging system (Essen BioScience, Ltd.; Newark, UK).

The target of data set [1] is T1, FGF-2 (Homo sapiens, UniProt P09038).
T1 construct: purchased R&D Systems
The data set can be described thus: Grating-coupled interferometry (GCI). In kind it is binding. Conditions: FGF-2 over immobilized biotinylated CXCL9(74-103), 25 °C, pH 7.4; mean ± SEM, n = 3. Here is the method: GCI experiments were performed on a Creoptix WAVEdelta system (Creoptix AG, Wädenswil, Switzerland), which is a label-free surface biosensor system for the characterization of molecular interactions. 4PCP-STA chips (Creoptix AG) were used, which contain a quasi-planar polycarboxyl-matrix with pre-immobilized streptavidin. The running buffer for the experiments was PBS supplemented with 30 mM NaCl, 15 mM L-Arginine, 0.015% (v/v) Tween® 20 and 0.05 mg/mL BSA at pH 7.4 for reducing nonspecific binding. Chips were conditioned using borate buffer (100 mM sodium borate, 1 M NaCl, pH 9.0). Capture was performed by injecting biotinylated CXCL9(74-103) at a concentration of 2 µg/mL and a flow rate of 10 µL/minute over the chip surface, until a density of +/− 160 was reached. After capture of biotinylated CXCL9(74-103), binding with FGF-2 was studied by injecting an FGF-2 concentration series over the chip surface. […] A reference channel was blocked in the same way. Injections of the FGF-2 analyte were performed at 25 °C, with an association and dissociation time of 120 seconds and a flow rate of 40 µL/min. Absence of mass-transport limitation was verified by repeating the experiment at 50 µL/minute. A 1:3 dilution series with six dilutions (4.53 nM, 13.6 nM, 40.7 nM, 122 nM, 367 nM, 1.10 µM; all in duplicate) was analyzed. […]

In data set [2] the test system is FGF-2. To be noted: cited from earlier work. From the text: Earlier studies that report on targeting HS-mediated interactions most commonly rely on HS mimetics that either mask HS for GF binding or directly interact with the GF, preventing it from binding to HS [39]. […] Pagano et al. reported that the small molecule inhibitor SM27, derived from the FGF-2-binding region of thrombospondin-1 (TSP-1), selectively bound the heparin-binding site of FGF-2 ...

In data set [3] the test system is EGFR and α3β1 integrin / syndecan-4. Conditions: cited from earlier work. From the text: Syndecan-4, the most abundant mammalian syndecan, has been described to function as an independent receptor for several heparin-binding growth factors such as FGFs, VEGFs and PDGFs. Upon ligand binding, the HSPGs oligomerize and initiate signaling components such as mammalian target of rapamycin (mTOR), RAC-α serine/threonine-protein kinase (AKT1) and the Rho family of GTPases, which are r ...

T1 sequence (P09038 143-288): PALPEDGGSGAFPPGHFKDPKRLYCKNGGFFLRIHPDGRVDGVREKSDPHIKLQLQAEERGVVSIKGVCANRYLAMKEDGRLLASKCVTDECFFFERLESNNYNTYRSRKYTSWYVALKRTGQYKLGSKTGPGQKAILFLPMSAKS

Regarding “KKKQKNGKKHQKKKVLKVRKSQRSRQKKTT [CXCL9(74-103)]”, the “cell viability / toxicity” value in the data set on HMVECs is on record as “without inducing any cell toxicity”. On FGF-2 [1], this substance yielded a koff of 0.00207 s⁻¹ and a kon of 20000 M⁻¹ s⁻¹.

As to “TSP-2: another TSP (thrombospondin) with anti-angiogenic activity”, in the data set on FGF-2 [2], the “interaction with FGF-2” value was “able to interact with FGF-2 and interfered with HS and FGFR1 binding”. Consider “synstatin (SSTNEGFR): a peptide based on the EGFR interaction motifs”, for which the “displacement from syndecan and cell migration” value in data set [3] is “displaces the RTK and α3β1 integrin from the syndecan and prevents cell migration”.
